Source: PubChem BioAssay (NCI)
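The concentration for 50% growth inhibition is given as GI50. TGI marks complete inhibition of growth.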

Tests used:
Experiment in all cases: inhibition of tumour cell growth, NCI panel, 384-well format
[1] = tested on: SN12C renal
[2] = tested on: KM12 colon
[3] = tested on: CAKI-1 renal
[4] = tested on: CCRF-CEM leukemia
[5] = tested on: M14 melanoma
[6] = tested on: TK-10 renal
[7] = tested on: SF-539 CNS
[8] = tested on: HL-60(TB) leukemia
[9] = tested on: SW-620 colon
[10] = tested on: MOLT-4 leukemia
[11] = tested on: LOX IMVI melanoma
[12] = tested on: SNB-19 CNS
[13] = tested on: NCI-H322M lung
[14] = tested on: IGROV1 ovarian
[15] = tested on: A549 NSCLC
[16] = tested on: PC-3 prostate
[17] = tested on: NCI-H226 lung
[18] = tested on: MDA-MB-435 melanoma
[19] = tested on: T-47D breast
[20] = tested on: HCC-2998 colon
[21] = tested on: NCI-H460 NSCLC
[22] = tested on: DU-145 prostate
[23] = tested on: HCT-15 colon
[24] = tested on: K-562 leukemia
[25] = tested on: HT29 colon
[26] = tested on: 786-0 renal
[27] = tested on: A498 renal
[28] = tested on: SF-295 CNS
[29] = tested on: NCI-H522 lung
[30] = tested on: SK-MEL-5 melanoma
[31] = tested on: OVCAR-4 ovarian
[32] = tested on: HOP-92 NSCLC
[33] = tested on: U251 glioblastoma
[34] = tested on: UACC-257 melanoma
[35] = tested on: MDA-MB-231 breast
[36] = tested on: BT-549 breast
[37] = tested on: SNB-75 CNS
[38] = tested on: RPMI-8226 leukemia
[39] = tested on: MCF7 breast
[40] = tested on: MALME-3M melanoma
[41] = tested on: SK-OV-3 ovarian
[42] = tested on: SK-MEL-28 melanoma
[43] = tested on: SF-268 CNS
[44] = tested on: HCT-116 colon
[45] = tested on: COLO 205 colon
[46] = tested on: OVCAR-8 ovarian
[47] = tested on: HS 578T breast
[48] = tested on: SR leukemia
[49] = tested on: NCI-H23 lung
[50] = tested on: OVCAR-3 ovarian
[51] = tested on: HOP-62 NSCLC
[52] = tested on: NCI/ADR-RES ovarian
[53] = tested on: MDA-MB-468 breast
[54] = tested on: EKVX NSCLC
[55] = tested on: ACHN renal
[56] = tested on: RXF 393 renal

Nc1ccccc1NC(=O)c1ccc(CNc2nccc(-c3cccnc3)n2)cc1
GI50 [1]: 593 nM
TGI [1]: 1850 nM
GI50 [2]: 400 nM
TGI [2]: 3850 nM
GI50 [3]: 318 nM
TGI [3]: 1200 nM
GI50 [4]: 131 nM
TGI [4]: 266 nM
GI50 [5]: 456 nM
TGI [5]: 1640 nM
GI50 [6]: 244 nM
TGI [6]: 1180 nM
GI50 [7]: 473 nM
TGI [7]: 2490 nM
GI50 [8]: 113 nM
TGI [8]: 236 nM
GI50 [9]: 208 nM
TGI [9]: 657 nM
GI50 [10]: 150 nM
TGI [10]: 285 nM
GI50 [11]: 175 nM
TGI [11]: 322 nM
GI50 [12]: 740 nM
TGI [12]: 2540 nM
GI50 [13]: 410 nM
TGI [13]: 1790 nM
GI50 [14]: 235 nM
TGI [14]: 808 nM
GI50 [15]: 621 nM
TGI [15]: 2370 nM
GI50 [16]: 408 nM
TGI [16]: 8810 nM
GI50 [17]: 543 nM
TGI [17]: 2120 nM
GI50 [18]: 209 nM
TGI [18]: 419 nM
GI50 [19]: 198 nM
TGI [19]: 409 nM
GI50 [20]: 342 nM
TGI [20]: 1200 nM
GI50 [21]: 216 nM
TGI [21]: 1300 nM
GI50 [22]: 302 nM
TGI [22]: 1420 nM
GI50 [23]: 336 nM
TGI [23]: 1310 nM
GI50 [24]: 120 nM
TGI [24]: 357 nM
GI50 [25]: 285 nM
TGI [25]: 1120 nM
GI50 [26]: 390 nM
TGI [26]: 2360 nM
GI50 [27]: 261 nM
TGI [27]: 1110 nM
GI50 [28]: 159 nM
TGI [28]: 306 nM
GI50 [29]: 301 nM
TGI [29]: 1390 nM
GI50 [30]: 196 nM
TGI [30]: 359 nM
GI50 [31]: 371 nM
TGI [31]: 1670 nM
GI50 [32]: 219 nM
TGI [32]: 823 nM
GI50 [33]: 159 nM
TGI [33]: 333 nM
GI50 [34]: 169 nM
TGI [34]: 344 nM
GI50 [35]: 371 nM
TGI [35]: 3250 nM
GI50 [36]: 497 nM
TGI [36]: 2390 nM
GI50 [37]: 386 nM
TGI [37]: 7580 nM
GI50 [38]: 28.2 nM
TGI [38]: 75.2 nM
GI50 [39]: 213 nM
TGI [39]: 1090 nM
GI50 [40]: 150 nM
TGI [40]: 298 nM
GI50 [41]: 258 nM
TGI [41]: 1380 nM
GI50 [42]: 190 nM
TGI [42]: 368 nM
GI50 [43]: 225 nM
TGI [43]: 555 nM
GI50 [44]: 136 nM
TGI [44]: 350 nM
GI50 [45]: 292 nM
TGI [45]: 741 nM
GI50 [46]: 242 nM
TGI [46]: 1180 nM
GI50 [47]: 217 nM
TGI [47]: 498 nM
GI50 [48]: 32.6 nM
TGI [48]: 148 nM
GI50 [49]: 248 nM
TGI [49]: 1320 nM
GI50 [50]: 374 nM
TGI [50]: 1680 nM
GI50 [51]: 255 nM
TGI [51]: 1260 nM
GI50 [52]: 332 nM
TGI [52]: 1270 nM
GI50 [53]: 234 nM
TGI [53]: 592 nM
GI50 [54]: 766 nM
TGI [54]: 18100 nM
GI50 [55]: 348 nM
TGI [55]: 1200 nM
GI50 [56]: 114 nM
TGI [56]: 426 nM

CN1CCC(COc2cnc(-c3cccc(Cn4nc(-c5cccc(C#N)c5)ccc4=O)c3)nc2)CC1
GI50 [1]: > 100000 nM
TGI [1]: > 100000 nM
GI50 [2]: 2380 nM
TGI [2]: 4810 nM
GI50 [3]: 1730 nM
TGI [3]: 3200 nM
GI50 [5]: 2090 nM
TGI [5]: 3530 nM
GI50 [8]: 1570 nM
TGI [8]: 2910 nM
GI50 [11]: 1710 nM
TGI [11]: 3100 nM
GI50 [14]: 2170 nM
TGI [14]: 4160 nM
GI50 [15]: 2200 nM
TGI [15]: 4560 nM
GI50 [20]: 3200 nM
TGI [20]: 5670 nM
GI50 [22]: 2530 nM
TGI [22]: 5890 nM
GI50 [23]: 1450 nM
TGI [23]: 2940 nM
GI50 [25]: 1740 nM
TGI [25]: 3150 nM
GI50 [26]: 1690 nM
TGI [26]: 3220 nM
GI50 [27]: 2040 nM
TGI [27]: 3620 nM
GI50 [32]: 1720 nM
TGI [32]: 3400 nM
GI50 [35]: 1940 nM
TGI [35]: 3410 nM
GI50 [36]: 1440 nM
TGI [36]: 2760 nM
GI50 [39]: 1680 nM
TGI [39]: 3360 nM
GI50 [40]: 1590 nM
TGI [40]: 2930 nM
GI50 [41]: > 100000 nM
TGI [41]: > 100000 nM
GI50 [44]: 1750 nM
TGI [44]: 3160 nM
GI50 [45]: 2460 nM
TGI [45]: 5350 nM
GI50 [47]: 1480 nM
TGI [47]: 2850 nM
GI50 [51]: 1960 nM
TGI [51]: 3770 nM
GI50 [54]: 2770 nM
TGI [54]: 6490 nM
GI50 [55]: 2050 nM
TGI [55]: 3760 nM
GI50 [56]: 1320 nM
TGI [56]: 2640 nM
